Our source for the MIC and ED50 values is ChEMBL document CHEMBL1145592, “Pleuromutilin derivatives having a purine ring. Part 1: new compounds with promising antibacterial activity against resistant Gram-positive pathogens” (2008).

Molecules are shown by their SMILES. Converted amounts (≈) assume the structure as drawn. A value given as a limit tells only on which side of the number the result lay.

Common to all, as to assay type: functional
For assay [1], the system named is Staphylococcus aureus. Kind of assay: Antibacterial activity against methicillin-susceptible Staphylococcus aureus Smith.
Assay [2] relates to Staphylococcus aureus. Kind of assay: Antibacterial activity against methicillin-resistant Staphylococcus aureus KMP9.
Assay [3] concerns Enterococcus faecium. Kind of assay: Antibacterial activity against vancomycin-resistant Enterococcus faecium KU1778.
Assay [4] relates to Staphylococcus aureus. Description: Antibacterial activity against methicillin-susceptible Staphylococcus aureus Smith infected iv dosed mouse 1 hr after inoculation.
Assay [5] deals with Streptococcus pneumoniae. Description: Antibacterial activity against penicillin-susceptible Streptococcus pneumoniae ATCC 49619.
Assay [6] concerns Streptococcus pneumoniae. Kind of assay: Antibacterial activity against penicillin-resistant Streptococcus pneumoniae KT2524.
Assay [7] concerns Streptococcus pyogenes. Kind of assay: Antibacterial activity against Streptococcus pyogenes ATCC 12344.
Assay [8] relates to Moraxella catarrhalis. Description: Antibacterial activity against Moraxella catarrhalis K1209.
For assay [9], the system named is Haemophilus influenzae. Kind of assay: Antibacterial activity against Haemophilus influenzae TH13.

A word on the ED50: it is the midpoint of the dose-response relation. The low end stands for an effect at a small dose, the high end for a need for a large dose. Regarding `C=C[C@]1(C)C[C@@H](OC(=O)CSC2CCN(C(=O)CCn3cnc4c(N5CC[C@H](N)C5)ncnc43)CC2)[C@]2(C)[C@H](C)CC[C@]3(CCC(=O)[C@@H]32)[C@@H](C)[C@@H]1O`, the MIC in assay [1] amounted to 0.125 µg/mL (≈ 0.17 µM); in assay [2] it was 0.5 µg/mL (≈ 0.679 µM); in assay [3], 0.125 µg/mL (≈ 0.17 µM); in assay [5], 0.032 µg/mL (≈ 0.0435 µM); in assay [6], 0.032 µg/mL (≈ 0.0435 µM); in assay [7], 0.016 µg/mL (≈ 0.0217 µM). For the same compound, the figures for the MIC in assay [8] and in assay [9] were 0.125 µg/mL (≈ 0.17 µM) and 2 µg/mL (≈ 2.72 µM), respectively. The compound also returned an ED50 in assay [4] of 1.3 mg/kg.

As for `C=C[C@]1(C)C[C@@H](OC(=O)CSC2CCN(C(=O)CCn3cnc4c(N5CC[C@@H](N)C5)ncnc43)CC2)[C@]2(C)[C@H](C)CC[C@]3(CCC(=O)[C@@H]32)[C@@H](C)[C@@H]1O`, the MIC came out at 0.063 µg/mL (≈ 0.0856 µM) in assay [1]; 0.25 µg/mL (≈ 0.34 µM) in assay [2]; 0.063 µg/mL (≈ 0.0856 µM) in assay [3]; 0.016 µg/mL (≈ 0.0217 µM) in [5]; 0.016 µg/mL (≈ 0.0217 µM) in assay [6]; 0.008 µg/mL (≈ 0.0109 µM) in assay [7]. In addition, the MIC in [8] worked out at 0.063 µg/mL (≈ 0.0856 µM); in assay [9], 1 µg/mL (≈ 1.36 µM). The compound also showed an ED50 in assay [4] of 1.01 mg/kg.

As to `C=C[C@]1(C)C[C@@H](OC(=O)CSC2CCN(C(=O)CCn3cnc4c(N5CCC(NC)CC5)ncnc43)CC2)[C@]2(C)[C@H](C)CC[C@]3(CCC(=O)[C@@H]32)[C@@H](C)[C@@H]1O`, the MIC in assay [1] was determined as 0.125 µg/mL (≈ 0.164 µM); in [2] it was 0.25 µg/mL (≈ 0.327 µM); in assay [3], 0.063 µg/mL (≈ 0.0825 µM); in [5], 0.063 µg/mL (≈ 0.0825 µM); in assay [6], 0.063 µg/mL (≈ 0.0825 µM); in assay [7], 0.032 µg/mL (≈ 0.0419 µM). Further, the results for the MIC in [8] and in assay [9] were 0.125 µg/mL (≈ 0.164 µM) and 2 µg/mL (≈ 2.62 µM), respectively. Moreover, in assay [4], the ED50 was found to be 2.21 mg/kg.

Take `C=C[C@]1(C)C[C@@H](OC(=O)CSC2CCN(C(=O)CCn3cnc4c(N5CCC(N(C)C)C5)nc(N)nc43)CC2)[C@]2(C)[C@H](C)CC[C@]3(CCC(=O)[C@@H]32)[C@@H](C)[C@@H]1O` (stereo partly drawn): the MIC in assay [1] was 0.25 µg/mL (≈ 0.321 µM); in [2], 0.25 µg/mL (≈ 0.321 µM); in assay [3] it was 0.125 µg/mL (≈ 0.16 µM); in assay [5] it was 0.063 µg/mL (≈ 0.0809 µM); in assay [6], 0.063 µg/mL (≈ 0.0809 µM); in [7], 0.063 µg/mL (≈ 0.0809 µM). The MIC in [8] was 0.125 µg/mL (≈ 0.16 µM); in assay [9], 2 µg/mL (≈ 2.57 µM). For the same compound, the ED50 in assay [4] is 3 mg/kg.

`C=C[C@]1(C)C[C@@H](OC(=O)CSC2CCN(C(=O)CCn3cnc4c(N5CCC(CN)C5)nc(N)nc43)CC2)[C@]2(C)[C@H](C)CC[C@]3(CCC(=O)[C@@H]32)[C@@H](C)[C@@H]1O` (stereo partly drawn): the MIC in assay [1] came to 0.5 µg/mL (≈ 0.654 µM); in assay [2] it was 2 µg/mL (≈ 2.61 µM); in assay [3] it was 0.5 µg/mL (≈ 0.654 µM); in assay [5], 0.063 µg/mL (≈ 0.0823 µM); in assay [6], 0.125 µg/mL (≈ 0.163 µM); in [7], 0.032 µg/mL (≈ 0.0418 µM). Besides, the MIC in assay [8] stood at 0.125 µg/mL (≈ 0.163 µM); in [9], 4 µg/mL (≈ 5.23 µM). The compound also showed an ED50 in assay [4] of 2.84 mg/kg.

As for `C=C[C@]1(C)C[C@@H](OC(=O)CSC2CCN(C(=O)CCn3cnc4c(N5CCCC(N)C5)ncnc43)CC2)[C@]2(C)[C@H](C)CC[C@]3(CCC(=O)[C@@H]32)[C@@H](C)[C@@H]1O` (stereo partly drawn), the MIC in [1] was found to be 0.125 µg/mL (≈ 0.167 µM); in [2] it was 0.125 µg/mL (≈ 0.167 µM); in assay [3], 0.032 µg/mL (≈ 0.0427 µM); in assay [5] it was 0.016 µg/mL (≈ 0.0213 µM); in assay [6], 0.032 µg/mL (≈ 0.0427 µM); in assay [7], 0.016 µg/mL (≈ 0.0213 µM). Further, the MIC in assay [8] worked out at 0.032 µg/mL (≈ 0.0427 µM); in assay [9] it was 1 µg/mL (≈ 1.33 µM). The same compound returned an ED50 in [4] of 2.21 mg/kg.

Turning to `C=C[C@]1(C)C[C@@H](OC(=O)CSC2CCN(C(=O)CCn3cnc4c(N5CCC(CNC)C5)ncnc43)CC2)[C@]2(C)[C@H](C)CC[C@]3(CCC(=O)[C@@H]32)[C@@H](C)[C@@H]1O` (stereo partly drawn), the MIC turned out to be 0.25 µg/mL (≈ 0.327 µM) in [1]; 0.5 µg/mL (≈ 0.654 µM) in [2]; 0.125 µg/mL (≈ 0.164 µM) in assay [3]; 0.063 µg/mL (≈ 0.0825 µM) in [5]; 0.063 µg/mL (≈ 0.0825 µM) in [6]; 0.016 µg/mL (≈ 0.0209 µM) in assay [7]. Also, the MIC was found to be 0.125 µg/mL (≈ 0.164 µM) in assay [8] and 2 µg/mL (≈ 2.62 µM) in assay [9]. In [4], this compound showed an ED50 of 0.76 mg/kg.

For `C=C[C@]1(C)C[C@@H](OC(=O)CSC2CCN(C(=O)CCn3cnc4c(N5CC(NC)C5)nc(N)nc43)CC2)[C@]2(C)[C@H](C)CC[C@]3(CCC(=O)[C@@H]32)[C@@H](C)[C@@H]1O`, the MIC in [1] was 0.5 µg/mL (≈ 0.666 µM); in [2], 1 µg/mL (≈ 1.33 µM); in [3], 0.5 µg/mL (≈ 0.666 µM); in assay [5] it was 0.063 µg/mL (≈ 0.0839 µM); in assay [6] it was 0.125 µg/mL (≈ 0.166 µM); in assay [7], 0.125 µg/mL (≈ 0.166 µM). Besides, the MIC in assay [8] was determined as 0.25 µg/mL (≈ 0.333 µM); in [9] it was 2 µg/mL (≈ 2.66 µM). In [4], this compound had an ED50 of 3.97 mg/kg.

For the compound `CN[C@H](CC(C)C)C(=O)N[C@H]1C(=O)N[C@@H](CC(N)=O)C(=O)N[C@H]2C(=O)N[C@H]3C(=O)N[C@H](C(=O)N[C@H](C(=O)O)c4cc(O)cc(O)c4-c4cc3ccc4O)[C@H](O)c3ccc(c(Cl)c3)Oc3cc2cc(c3O[C@@H]2O[C@H](CO)[C@@H](O)[C@H](O)[C@H]2O[C@H]2C[C@](C)(N)[C@H](O)[C@H](C)O2)Oc2ccc(cc2Cl)[C@H]1O` [VANCOMYCIN], the MIC in [3] was over 128 µg/mL; in assay [5] it was 0.25 µg/mL (≈ 0.173 µM); in assay [6], 0.5 µg/mL (≈ 0.345 µM); in assay [8], 64 µg/mL (≈ 44.2 µM); in assay [9] it was over 128 µg/mL. In assay [4], this compound came in with an ED50 of 0.88 mg/kg.
